Values of other authors as cited in patent US20230099183A1, “STEVIOL GLYCOSIDE AND GLYCERIN FORMULATIONS FOR FOOD AND BEVERAGES” (Sweegen, Inc., priority 2021, published 2023).

Key:
[1] = background statement on natural steviol glycosides
[2] = background statement; concentration in food or beverage

Compound	degree of sweetness, times sweeter than sucrose [1]	concentration above which bitterness is perceptible [2]
C=C1C[C@@]23CC[C@H]4[C@@](C)(CCC[C@@]4(C)C(=O)O[C@@H]4O[C@H](CO)[C@@H](O)[C@H](O)[C@H]4O)[C@@H]2CC[C@]1(O[C@@H]1O[C@H](CO)[C@@H](O)[C@H](O)[C@H]1O[C@@H]1O[C@@H](C)[C@H](O)[C@@H](O)[C@H]1O)C3 [Dulcoside A]	about 30 times sweeter than sucrose	–
Rebaudioside C	40-60 times sweeter than sucrose	–
C=C1C[C@@]23CC[C@H]4[C@@](C)(CCC[C@@]4(C)C(=O)O[C@@H]4O[C@H](CO)[C@@H](O)[C@H](O)[C@H]4O)[C@@H]2CC[C@]1(O[C@@H]1O[C@H](CO)[C@@H](O)[C@H](O[C@@H]2O[C@H](CO)[C@@H](O)[C@H](O)[C@H]2O)[C@H]1O[C@@H]1O[C@H](CO)[C@@H](O)[C@H](O)[C@H]1O)C3 [Reb A]	–	above 200 ppm
C=C1C[C@@]23CC[C@H]4[C@@](C)(CCC[C@@]4(C)C(=O)O[C@@H]4O[C@H](CO)[C@@H](O)[C@H](O)[C@H]4O)[C@@H]2CC[C@]1(O[C@@H]1O[C@H](CO)[C@@H](O)[C@H](O)[C@H]1O[C@@H]1O[C@H](CO)[C@@H](O)[C@H](O)[C@H]1O)C3 [stevioside]	100-150 times sweeter than sucrose	–
